From PubChem BioAssay (NCI)
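The compound was tested at five concentrations on cells cultured in 96-well plates, with a 48-hour exposure period. The concentration for 50% growth inhibition is given as GI50. TGI is the concentration that stops growth completely.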

What was measured:
Test in all cases: NCI-60 cell line screen, 48 h
786-0 renal = system: 786-0 renal
COLO 205 colon = system: COLO 205 colon
DLD-1 colon = system: DLD-1 colon
DMS 273 small cell lung = system: DMS 273 small cell lung
LOX IMVI melanoma = system: LOX IMVI melanoma
OVCAR-3 ovarian = system: OVCAR-3 ovarian
OVCAR-4 ovarian = system: OVCAR-4 ovarian
UACC-62 melanoma = system: UACC-62 melanoma
UO-31 renal = system: UO-31 renal
BT-549 breast = system: BT-549 breast

CCOC1=C2C(=O)OC(=O)C2C2CCCCC2=C1 (centres undefined)
TGI (786-0 renal): > 100 µM | TGI (COLO 205 colon): > 100 µM | TGI (DLD-1 colon): > 100 µM | TGI (DMS 273 small cell lung): > 100 µM | TGI (LOX IMVI melanoma): > 100 µM | TGI (OVCAR-3 ovarian): > 100 µM | TGI (OVCAR-4 ovarian): > 100 µM | TGI (UACC-62 melanoma): > 100 µM | TGI (UO-31 renal): > 100 µM

Clc1ccc(N=Nc2nc3ccccc3nc2N=Nc2ccc(Cl)cc2Cl)c(Cl)c1
TGI (786-0 renal): > 100 µM | TGI (COLO 205 colon): > 100 µM | TGI (DLD-1 colon): > 100 µM | TGI (LOX IMVI melanoma): > 100 µM | TGI (OVCAR-3 ovarian): > 100 µM | TGI (OVCAR-4 ovarian): > 100 µM | TGI (UO-31 renal): > 100 µM

Cc1cc2c(C)nn(Cc3ccccc3)c2c(C(N)=O)c1C
TGI (786-0 renal): > 100 µM | TGI (COLO 205 colon): > 100 µM | TGI (DLD-1 colon): > 100 µM | TGI (DMS 273 small cell lung): > 100 µM | TGI (LOX IMVI melanoma): > 100 µM | TGI (OVCAR-3 ovarian): > 100 µM | TGI (OVCAR-4 ovarian): > 100 µM | TGI (UACC-62 melanoma): > 100 µM | TGI (UO-31 renal): > 100 µM

c1ccc(C(c2ccccc2)c2cccnc2)cc1
TGI (786-0 renal): > 100 µM | TGI (COLO 205 colon): > 100 µM | TGI (DLD-1 colon): > 100 µM | TGI (DMS 273 small cell lung): > 100 µM | TGI (LOX IMVI melanoma): > 100 µM | TGI (OVCAR-3 ovarian): > 100 µM | TGI (OVCAR-4 ovarian): > 100 µM | TGI (UACC-62 melanoma): > 100 µM | TGI (UO-31 renal): > 100 µM

Cc1ccc(SSc2ccc(C)cc2C(=O)O)c(C(=O)O)c1
TGI (786-0 renal): > 100 µM | TGI (COLO 205 colon): > 100 µM | TGI (DLD-1 colon): > 100 µM | TGI (DMS 273 small cell lung): > 100 µM | TGI (LOX IMVI melanoma): > 100 µM | TGI (OVCAR-4 ovarian): > 100 µM | TGI (UACC-62 melanoma): > 100 µM | TGI (UO-31 renal): > 100 µM

COC(=O)/C(=N\NC(=O)C[N+](C)(C)C)C(C(=O)OC)C(=O)C(=O)Nc1ccccc1C(N)=O (centres undefined)
TGI (786-0 renal): > 100 µM | TGI (COLO 205 colon): > 100 µM | TGI (DLD-1 colon): > 100 µM | TGI (DMS 273 small cell lung): > 100 µM | TGI (LOX IMVI melanoma): > 100 µM | TGI (OVCAR-3 ovarian): > 100 µM | TGI (OVCAR-4 ovarian): > 100 µM | TGI (UACC-62 melanoma): > 100 µM | TGI (UO-31 renal): > 100 µM

C1COCCN1.C1COCCN1.NC1CCCCC1N.[Cl-].[Pt+2] (centres undefined)
GI50 (786-0 renal): > 100 µM | TGI (786-0 renal): > 100 µM | GI50 (COLO 205 colon): > 100 µM | TGI (COLO 205 colon): > 100 µM | GI50 (DLD-1 colon): > 100 µM | TGI (DLD-1 colon): > 100 µM | GI50 (LOX IMVI melanoma): > 100 µM | TGI (LOX IMVI melanoma): > 100 µM | GI50 (OVCAR-3 ovarian): > 100 µM | TGI (OVCAR-3 ovarian): > 100 µM | GI50 (OVCAR-4 ovarian): > 100 µM | TGI (OVCAR-4 ovarian): > 100 µM | GI50 (UACC-62 melanoma): > 100 µM | TGI (UACC-62 melanoma): > 100 µM | GI50 (UO-31 renal): > 100 µM | TGI (UO-31 renal): > 100 µM

c1cc2n(n1)CCN2
TGI (786-0 renal): > 7100 µM | TGI (BT-549 breast): > 10000 µM | TGI (COLO 205 colon): > 10000 µM | TGI (DLD-1 colon): > 10000 µM | TGI (DMS 273 small cell lung): 2440 µM | TGI (LOX IMVI melanoma): 7690 µM | TGI (OVCAR-3 ovarian): > 10000 µM | TGI (OVCAR-4 ovarian): > 9780 µM | TGI (UACC-62 melanoma): 6540 µM | TGI (UO-31 renal): 9890 µM

CN1c2ccccc2N(C(=O)c2ccc(Cl)cc2)C(CC(=O)O)c2cccn21 (centres undefined)
TGI (786-0 renal): > 100 µM | TGI (COLO 205 colon): > 100 µM | TGI (DLD-1 colon): > 100 µM | TGI (DMS 273 small cell lung): > 100 µM | TGI (LOX IMVI melanoma): > 100 µM | TGI (OVCAR-3 ovarian): > 100 µM | TGI (OVCAR-4 ovarian): > 100 µM | TGI (UACC-62 melanoma): > 100 µM | TGI (UO-31 renal): > 100 µM

Cc1oc2c(C)c3oc(=O)cc(C)c3cc2c1CN1C(=O)C2OCCOCCOCCOCCOCCO[C@H]2C1=O (some centres undefined)
TGI (786-0 renal): > 100 µM | TGI (COLO 205 colon): > 100 µM | TGI (DLD-1 colon): > 100 µM | TGI (DMS 273 small cell lung): > 100 µM | TGI (LOX IMVI melanoma): > 100 µM | TGI (OVCAR-3 ovarian): > 100 µM | TGI (OVCAR-4 ovarian): > 100 µM | TGI (UACC-62 melanoma): > 100 µM | TGI (UO-31 renal): > 100 µM

CC1OC(OC2C[C@](O)(C(=O)CF)Cc3c(O)c4c(c(O)c32)C(=O)c2ccccc2C4=O)CC(N)C1O (some centres undefined)
TGI (786-0 renal): 0.173 µM | TGI (BT-549 breast): 0.918 µM | TGI (COLO 205 colon): 0.266 µM | TGI (DLD-1 colon): 0.333 µM | TGI (DMS 273 small cell lung): 0.104 µM | TGI (LOX IMVI melanoma): 0.276 µM | TGI (OVCAR-3 ovarian): 1.49 µM | TGI (OVCAR-4 ovarian): 0.86 µM | TGI (UACC-62 melanoma): 0.117 µM | TGI (UO-31 renal): 1.02 µM

CCN(CC)CCOc1ccc(CCc2cc(OC)c(OC)c(OC)c2)cc1
TGI (786-0 renal): > 100 µM | TGI (COLO 205 colon): 31 µM | TGI (DLD-1 colon): > 100 µM | TGI (DMS 273 small cell lung): 35.8 µM | TGI (LOX IMVI melanoma): 26.9 µM | TGI (OVCAR-3 ovarian): > 100 µM | TGI (OVCAR-4 ovarian): > 100 µM | TGI (UACC-62 melanoma): 66.3 µM | TGI (UO-31 renal): > 100 µM

N.N.N.N.N.[Cl-].[Co+3].c1ccc(-c2nn[n-]n2)cc1
GI50 (786-0 renal): > 100 µM | TGI (786-0 renal): > 100 µM | GI50 (COLO 205 colon): > 100 µM | TGI (COLO 205 colon): > 100 µM | GI50 (DLD-1 colon): > 100 µM | TGI (DLD-1 colon): > 100 µM | GI50 (DMS 273 small cell lung): > 100 µM | TGI (DMS 273 small cell lung): > 100 µM | GI50 (LOX IMVI melanoma): > 100 µM | TGI (LOX IMVI melanoma): > 100 µM | GI50 (OVCAR-3 ovarian): > 100 µM | TGI (OVCAR-3 ovarian): > 100 µM | GI50 (OVCAR-4 ovarian): > 100 µM | TGI (OVCAR-4 ovarian): > 100 µM | GI50 (UACC-62 melanoma): > 100 µM | TGI (UACC-62 melanoma): > 100 µM | GI50 (UO-31 renal): > 100 µM | TGI (UO-31 renal): > 100 µM

CC(=O)NNc1nc(C)c(C(=O)/C=C/c2ccccc2Cl)s1
TGI (786-0 renal): > 100 µM | TGI (COLO 205 colon): > 100 µM | TGI (DLD-1 colon): > 100 µM | TGI (DMS 273 small cell lung): > 100 µM | TGI (LOX IMVI melanoma): > 100 µM | TGI (OVCAR-3 ovarian): > 100 µM | TGI (UACC-62 melanoma): > 100 µM | TGI (UO-31 renal): > 100 µM

COC(=O)C(C#CCCCCC#CC(NC(=O)OCc1ccccc1)(C(=O)OC)C(F)(F)F)(NC(=O)OCc1ccccc1)C(F)(F)F (centres undefined)
TGI (786-0 renal): > 100 µM | TGI (COLO 205 colon): > 100 µM | TGI (DLD-1 colon): > 100 µM | TGI (LOX IMVI melanoma): > 100 µM | TGI (OVCAR-3 ovarian): > 100 µM | TGI (OVCAR-4 ovarian): > 100 µM | TGI (UACC-62 melanoma): > 100 µM | TGI (UO-31 renal): > 100 µM

O=CN/C=C/c1cccc(O)c1
TGI (786-0 renal): 83.7 µM | TGI (BT-549 breast): 58.5 µM | TGI (COLO 205 colon): > 100 µM | TGI (DLD-1 colon): > 100 µM | TGI (DMS 273 small cell lung): > 100 µM | TGI (LOX IMVI melanoma): 69.1 µM | TGI (OVCAR-3 ovarian): > 100 µM | TGI (OVCAR-4 ovarian): > 93.8 µM | TGI (UACC-62 melanoma): 63.3 µM | TGI (UO-31 renal): > 83.2 µM

Cc1ccc([N+](=O)[O-])cc1NC(=O)/C(=N/NC(=S)NN)C1SC(=S)NC1=O (centres undefined)
TGI (786-0 renal): > 100 µM | TGI (COLO 205 colon): > 100 µM | TGI (DLD-1 colon): > 100 µM | TGI (DMS 273 small cell lung): > 100 µM | TGI (LOX IMVI melanoma): > 100 µM | TGI (OVCAR-4 ovarian): > 100 µM | TGI (UACC-62 melanoma): > 100 µM | TGI (UO-31 renal): > 100 µM

COc1cc([C@@H]2c3cc4c(cc3[C@@H](OC(=O)c3ccc(N)cc3)C3COC(=O)[C@@H]32)OCO4)cc(OC)c1O (some centres undefined)
TGI (786-0 renal): 59 µM | TGI (COLO 205 colon): 18.9 µM | TGI (DLD-1 colon): > 95 µM | TGI (DMS 273 small cell lung): 61.9 µM | TGI (LOX IMVI melanoma): 50.7 µM | TGI (OVCAR-3 ovarian): 35 µM | TGI (OVCAR-4 ovarian): > 95 µM | TGI (UACC-62 melanoma): 19.5 µM | TGI (UO-31 renal): 34.5 µM

O=C(CC(=O)C1=CNc2ccccc2S1)C(=O)Nc1ccc(Cl)cc1
TGI (786-0 renal): > 50 µM | TGI (COLO 205 colon): > 50 µM | TGI (DLD-1 colon): > 50 µM | TGI (DMS 273 small cell lung): > 50 µM | TGI (LOX IMVI melanoma): > 50 µM | TGI (OVCAR-3 ovarian): > 50 µM | TGI (OVCAR-4 ovarian): > 50 µM | TGI (UACC-62 melanoma): > 50 µM | TGI (UO-31 renal): > 50 µM
